Measured values as given in US8003627B2, “Urokinase inhibitors” (Universiteit Antwerpen, priority 2005, dated 2011).
Where two headings read alike, the source gives them in different places.

Experiments:
tPA = tPA (Homo sapiens, UniProt P00750); assay: Selectivity: tPA inhibition, chromogenic substrate S-2288; assay type: biochemical; settings: 1.25 mM substrate, Tris pH 8.3
Procedure: (§1) The IC50 values for plasmin, tPA, thrombin and FXa were determined in the same way as for uPA. […] FX is activated with Russel's Viper Venom.
(§2) Approximately 5 mU of enzyme, and 145 μl of buffer. For tPA and thrombin Tris buffer, pH 8.3, for FXa, Tris buffer pH 8.3 with 2.5 mM CaCl2, for plasmin Tris buffer pH 7.4, and for trypsin Tris buffer pH 8.2 was used. The selectivity index was calculated as (IC50 Enzyme X)/IC50 uPA, where X is tPA, thrombin, plasmin or FXa.

FXa = FXa (Homo sapiens, UniProt P00742); assay: Selectivity: FXa inhibition, chromogenic substrate S-2772; assay type: biochemical; settings: for inhibition at 250 µM: read-out: % inhibition at given concentration, FXa
Sequence of FXa (P00742 235-488 limits assumed): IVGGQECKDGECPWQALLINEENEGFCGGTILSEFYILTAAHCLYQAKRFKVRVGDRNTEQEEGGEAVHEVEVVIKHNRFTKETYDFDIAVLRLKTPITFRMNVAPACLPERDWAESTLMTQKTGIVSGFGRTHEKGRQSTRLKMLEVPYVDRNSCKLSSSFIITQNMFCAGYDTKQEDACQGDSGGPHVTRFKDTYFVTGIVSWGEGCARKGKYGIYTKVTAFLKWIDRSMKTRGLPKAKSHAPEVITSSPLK
Sequence of FXa (P00742 41-179 partner limits assumed): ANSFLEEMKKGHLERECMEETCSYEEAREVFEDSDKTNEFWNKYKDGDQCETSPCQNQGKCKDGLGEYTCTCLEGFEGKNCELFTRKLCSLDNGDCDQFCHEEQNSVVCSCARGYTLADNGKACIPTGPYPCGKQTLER
Procedure: as §1, §2

plasmin = molecular target: T1, plasmin (Homo sapiens, UniProt P00747); assay: Selectivity: plasmin inhibition, chromogenic substrate S-2366; assay type: biochemical
T1 construct: uPA mediates the proteolytic cleavage of plasminogen to give plasmin
T1 sequence (P00747 581-810 limits assumed, species assumed): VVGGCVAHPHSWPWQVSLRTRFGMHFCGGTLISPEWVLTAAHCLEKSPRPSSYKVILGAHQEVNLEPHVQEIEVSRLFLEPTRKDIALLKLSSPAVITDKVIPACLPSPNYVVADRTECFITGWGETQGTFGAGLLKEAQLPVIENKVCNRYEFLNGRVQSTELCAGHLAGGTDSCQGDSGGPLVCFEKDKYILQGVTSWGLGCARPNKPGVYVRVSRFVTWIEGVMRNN
T1 sequence (P00747 97-580 partner limits assumed, species assumed): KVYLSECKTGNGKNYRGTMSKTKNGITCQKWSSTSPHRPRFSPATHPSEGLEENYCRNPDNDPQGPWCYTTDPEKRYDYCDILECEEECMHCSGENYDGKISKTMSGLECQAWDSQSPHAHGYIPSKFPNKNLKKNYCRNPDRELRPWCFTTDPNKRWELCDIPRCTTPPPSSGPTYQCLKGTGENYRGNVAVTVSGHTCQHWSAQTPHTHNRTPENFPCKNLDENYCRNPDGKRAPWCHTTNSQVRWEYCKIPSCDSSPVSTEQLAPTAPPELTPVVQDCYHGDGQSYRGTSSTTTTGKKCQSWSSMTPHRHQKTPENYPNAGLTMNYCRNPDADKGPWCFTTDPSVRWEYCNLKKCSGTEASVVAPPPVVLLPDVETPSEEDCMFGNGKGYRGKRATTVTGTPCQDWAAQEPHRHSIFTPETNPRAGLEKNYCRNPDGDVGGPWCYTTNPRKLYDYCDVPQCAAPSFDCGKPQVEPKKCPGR
Procedure: as §1, §2

thrombin = thrombin (Homo sapiens, UniProt P00734); assay: Selectivity: thrombin inhibition, chromogenic substrate S-2366; assay type: biochemical
Procedure: as §1, §2

uPA [1] = molecular target: T2, uPA (Homo sapiens, UniProt P00749); assay: biochemical; assay type: biochemical; set-up: purchased Sigma-Aldrich
Procedure: The substrate was obtained from Chromogenix. The human enzyme was obtained from Sigma-Aldrich, the mouse uPA was obtained from Molecular Innovations.Inc (USA). […] A 50 mM Tris buffer, pH 8.8, was used. […] Activity measurements were routinely performed in duplicate. […] IC50 values were obtained by fitting the data with the 4 parameter logistics equation using Grafit 5. v=(vrange)/(1+exp(s*ln(abs(I0/IC50))))+back s: slope factor back: background v: rate I0: inhibitor concentration range: the fitted uninhibited value minus the background.
The equation assumes that y falls with increasing x.
(§3) Inhibitor stock solutions were prepared in DMSO and stored at −20° C. […] For a simple pseudo-first-order inactivation process, the activity after incubation with inhibitor (vi) varies with the inhibitor concentration (i) as described in the following equation: vi=v0·e^−kit, where v0 is the activity in absence of inhibitor, k is the second-order rate constant of inactivation, and t is the time.

trypsin = molecular target: T3, trypsin (Bos taurus, UniProt P00760); assay: Selectivity: trypsin inhibition, chromogenic substrate BAPNA; assay type: biochemical; settings: 425 μM substrate, Tris pH 8.2
T3 sequence (P00760 24-246): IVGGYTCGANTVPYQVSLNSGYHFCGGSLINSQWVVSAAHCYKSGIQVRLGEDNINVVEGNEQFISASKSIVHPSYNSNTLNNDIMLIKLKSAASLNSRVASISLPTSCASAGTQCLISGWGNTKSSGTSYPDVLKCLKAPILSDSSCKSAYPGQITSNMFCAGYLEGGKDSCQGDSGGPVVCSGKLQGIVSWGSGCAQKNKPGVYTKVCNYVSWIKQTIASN
Procedure: as §1, §2

uPA [2] = molecular target: T2, uPA; assay type: biochemical; set-up: purchased Sigma-Aldrich; settings: apparent second order rate constant, 250 μM substrate
Procedure: as §3

uPA [3] = molecular target: T2, uPA; settings: Tamura et al. 2000; cited from earlier work
[4] = 522 μM substrate, Tris pH 8.3 with […] CaCl2, read-out: IC50 (μM) FXa
[5] = 580 μM substrate, Tris pH 7.4, read-out: IC50 (μM) Plasmin
[6] = 580 μM substrate, Tris pH 8.3, read-out: IC50 (μM) Thrombin
[7] = 15-min pre-incubation at 37° C, 250 μM S-2444, Tris pH 8.8, read-out: IC50 (nM) uPA

Sequence of tPA (P00750 36-562, species assumed): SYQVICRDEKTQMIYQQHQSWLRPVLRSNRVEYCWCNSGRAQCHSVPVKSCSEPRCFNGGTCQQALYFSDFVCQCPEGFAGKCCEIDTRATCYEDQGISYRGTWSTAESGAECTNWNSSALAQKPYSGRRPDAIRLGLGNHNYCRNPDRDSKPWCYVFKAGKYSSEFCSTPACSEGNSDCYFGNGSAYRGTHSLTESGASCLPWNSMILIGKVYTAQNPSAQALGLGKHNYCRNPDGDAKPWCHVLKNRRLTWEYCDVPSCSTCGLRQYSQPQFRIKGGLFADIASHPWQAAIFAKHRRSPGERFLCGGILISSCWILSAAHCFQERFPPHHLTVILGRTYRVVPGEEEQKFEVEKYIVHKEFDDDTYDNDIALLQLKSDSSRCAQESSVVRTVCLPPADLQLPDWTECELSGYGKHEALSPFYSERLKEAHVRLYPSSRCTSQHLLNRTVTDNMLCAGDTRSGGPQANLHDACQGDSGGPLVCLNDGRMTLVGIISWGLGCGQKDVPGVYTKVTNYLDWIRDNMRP

| Compound | IC50 (tPA) [µM] | IC50 (FXa; [4]) [µM] | IC50 (plasmin; [5]) [µM] | IC50 (thrombin; [6]) [µM] | other results |
| --- | --- | --- | --- | --- | --- |
| N=C(N)Nc1ccc(CC(NC(=O)OCc2ccccc2)P(=O)(Oc2ccccc2)Oc2ccccc2)cc1 (centres unmarked) [Compound 7b, Diphenyl 1-(benzyloxycarbonylamino)-2-(4-guanidinophenyl)-ethanephosphonate] | 12 ± 0.8 | 100 ± 20 | 3 ± 0.6 | 2.4 ± 0.4 | – |
| N=C(N)Nc1ccc(CC(NC(=O)c2ccccc2)P(=O)(Oc2ccccc2)Oc2ccccc2)cc1 (centres unmarked) [Compound 7c, Diphenyl 1-(benzoylamino)-2-(4-guanidinophenyl)-ethanephosphonate] | 125 | – | 14 ± 1 | – | IC50 (uPA [1]; pH 8.8, read-out: IC50 (nM) uPA): 114 ± 11 nM; IC50 (FXa): > 250 µM |
| Cc1ccccc1S(=O)(=O)NC(Cc1ccc(NC(=N)N)cc1)P(=O)(Oc1ccccc1)Oc1ccccc1 (centres unmarked) [Compound 7d, Diphenyl 1-(o-toluenesulfonylamino)-2-(4-guanidinophenyl)-ethanephosphonate] | 7.3 ± 0.5 | – | 17 ± 2 | 11.9 ± 1.7 | % inhibition at given concentration, FXa (FXa; at 62 μM): 59% @; IC50 (trypsin): 0.17 ± 0.01 µM |
| CC(C)c1ccc(C(C)C)c(S(=O)(=O)NC(Cc2ccc(NC(=N)N)cc2)P(=O)(Oc2ccccc2)Oc2ccccc2)c1C(C)C (centres unmarked) [Compound 7f, Diphenyl 1-(2,3,6-tri-isopropylbenzenesulfonyl)amino-2-(4-guanidinophenyl)-ethanephosphonate] | 16 ± 1 | 20 ± 2 | ~125 | – | % inhibition at given concentration, Thrombin (thrombin; at 250 μM): 60% @; IC50 (trypsin): 5.6 ± 0.04 µM |
| CS(=O)(=O)NC(Cc1ccc(NC(=N)N)cc1)P(=O)(Oc1ccccc1)Oc1ccccc1 (centres unmarked) [Compound 7g, Diphenyl 1-(methylsulfonylamino)-2-(4-guanidinophenyl)-ethanephosphonate] | 8 ± 2 | – | 11 ± 1 | – | IC50 (FXa): ~250 µM; IC50 (thrombin): ~125 µM |
| N=C(N)c1ccc(C(NC(=O)OCc2ccccc2)P(=O)(Oc2ccccc2)Oc2ccccc2)cc1 (centres unmarked) [Compound 8a, Diphenyl 1-(N-benzyloxycarbonylamino)-1-(4-amidinophenyl)methanephosphonate] | 66 ± 7 | 6 ± 0.2 | 3.6 ± 0.4 | 0.288 ± 0.006 | – |
| N=C(N)c1ccc(CC(NC(=O)OCc2ccccc2)P(=O)(Oc2ccccc2)Oc2ccccc2)cc1 (centres unmarked) [Compound 8b, Diphenyl 1-(N-benzyloxycarbonylamino)-2-(4-amidinophenyl)ethanephosphonate] | 4 ± 2 | – | 1.2 ± 0.1 | 20 ± 2 | inhibition at 250 µM (FXa): 65% |
| CCC(NC(=O)OCc1ccccc1)(c1ccc(C(=N)N)cc1)P(=O)(Oc1ccccc1)Oc1ccccc1 (centres unmarked) [Compound 8c, Diphenyl 1-(N-benzyloxycarbonylamino)-1-(4-amidinophenyl)propanephosphonate] | 68 ± 9 | 13.7 ± 1.3 | 6.2 ± 0.4 | 17 ± 2 | IC50 (trypsin): 3.5 ± 0.2 µM |
| CC(=O)Nc1ccc(OP(=O)(Oc2ccc(NC(C)=O)cc2)C(Cc2ccc(NC(=N)N)cc2)NC(=O)OCc2ccccc2)cc1 (centres unmarked) [Compound 9b, Di-(4-acetamidophenyl) 1-(benzyloxycarbonylamino)-2-[(4-guanidino)phenyl]ethanephosphonate] | 7 ± 1 | 100 ± 24 | 0.9 ± 0.2 | 0.39 ± 0.03 | IC50 (uPA [1]; [7]): 4.2 ± 0.9 nM |
| CC(=O)Nc1ccc(OP(=O)(Oc2ccc(NC(C)=O)cc2)C(Cc2ccc(NC(=N)N)cc2)NS(C)(=O)=O)cc1 (centres unmarked) [Compound 9c, Di-(4-acetamidophenyl) 1-(methylsulfonylamino)-2-(4-guanidinophenyl)-ethanephosphonate] | 3.7 ± 0.4 | – | 2 ± 0.4 | 2.35 ± 0.06 | IC50 (uPA [1]; [7]): 3.5 ± 0.5 nM; inhibition at 250 µM (FXa): 55% |
| N=C(N)Nc1ccc(CC(N)P(=O)(Oc2ccccc2)Oc2ccccc2)cc1 (centres unmarked) [Compound 34d, Diphenyl 1-amino-2-(4-guanidinophenyl)ethylphosphonate] | – | – | – | – | IC50 (uPA [1]; [7]): 1600 ± 130 nM |
| COC(=O)NC(Cc1ccc(NC(=N)N)cc1)P(=O)(Oc1ccccc1)Oc1ccccc1 (centres unmarked) [Compound 35a, Methyl 1-(diphenoxyphosphoryl)-2-(4-guanidinophenyl)ethylcarbamate] | 23 ± 6 | – | – | – | IC50 (uPA [1]; [7]): 3.1 ± 0.5 nM; kapp (M^−1 · s^−1) uPA (uPA [2]): 62000 M⁻¹ s⁻¹; IC50 (plasmin): 12.8 ± 2 µM; IC50 (thrombin): 16.6 ± 2.3 µM |
| CCOC(=O)NC(Cc1ccc(NC(=N)N)cc1)P(=O)(Oc1ccccc1)Oc1ccccc1 (centres unmarked) [Compound 35c, Ethyl 1-(diphenoxyphosphoryl)-2-(4-guanidinophenyl)ethylcarbamate] | 57 ± 14 | – | 16 ± 3 | 3.8 ± 0.2 | IC50 (uPA [1]; [7]): 8 ± 3 nM; kapp (M^−1 · s^−1) uPA (uPA [2]): 40000 M⁻¹ s⁻¹ |
| CNC(=O)NC(Cc1ccc(NC(=N)N)cc1)P(=O)(Oc1ccccc1)Oc1ccccc1 (centres unmarked) [Compound 39a, Diphenyl 2-(4-guanidinophenyl)-1-(3-methylureido)ethylphosphonate] | – | – | – | – | IC50 (uPA [1]): 101000 ± 6800 nM |
| N=C(N)Nc1ccc(CC(NC(=O)NCc2ccccc2)P(=O)(Oc2ccccc2)Oc2ccccc2)cc1 (centres unmarked) [Compound 39b, Diphenyl 1-(3-benzylureido)-2-(4-guanidinophenyl)ethylphosphonate] | – | – | – | – | IC50 (uPA [1]): 43900 ± 3900 nM |
| CC(=O)NC(Cc1ccc(NC(=N)N)cc1)P(=O)(Oc1ccccc1)Oc1ccccc1 (centres unmarked) [Compound 41, Diphenyl 1-acetamido-2-(4-guanidinophenyl)ethylphosphonate] | – | – | 57 ± 1.3 | 32.2 ± 1.4 | IC50 (uPA [1]): 9.9 ± 0.8 nM |
| Diphenyl 1-(naphthalenesulfonylamino)-2-(4-guanidinophenyl)-ethanephosphonate [Compound 7e] | 44 ± 10 | 27 ± 2 | 1.2 ± 0.1 | 8.1 ± 0.8 | IC50 (trypsin): 0.28 ± 0.05 µM |
| Z-D-Ser-Ala-Arginal | – | – | – | – | IC50 (uPA [3]): 0.019 µM; selectivity ratio toward tPA (uPA [3]): more than 130 |
